Reference: patent US4446319A, “Aminocyclitols and their production” (Takeda Chemical Industries, Ltd., priority 1981, dated 1984)

Assays:
[1] = target: T1, α-glucosidase (yeast, type I) (Saccharomyces cerevisiae, UniProt P53341); experiment: glucosidase inhibitory activity, p-nitrophenyl α-D-glucopyranoside as substrate; type: biochemical; details: substrate 0.01 M p-nitrophenyl α-D-glucopyranoside, pH 6.8, 37° C., read-out: IC50 (concentration of 50% inhibition)
T1 construct: purchased Sigma Chemical Co; host or cells: yeast
T1 sequence (P53341 whole entry): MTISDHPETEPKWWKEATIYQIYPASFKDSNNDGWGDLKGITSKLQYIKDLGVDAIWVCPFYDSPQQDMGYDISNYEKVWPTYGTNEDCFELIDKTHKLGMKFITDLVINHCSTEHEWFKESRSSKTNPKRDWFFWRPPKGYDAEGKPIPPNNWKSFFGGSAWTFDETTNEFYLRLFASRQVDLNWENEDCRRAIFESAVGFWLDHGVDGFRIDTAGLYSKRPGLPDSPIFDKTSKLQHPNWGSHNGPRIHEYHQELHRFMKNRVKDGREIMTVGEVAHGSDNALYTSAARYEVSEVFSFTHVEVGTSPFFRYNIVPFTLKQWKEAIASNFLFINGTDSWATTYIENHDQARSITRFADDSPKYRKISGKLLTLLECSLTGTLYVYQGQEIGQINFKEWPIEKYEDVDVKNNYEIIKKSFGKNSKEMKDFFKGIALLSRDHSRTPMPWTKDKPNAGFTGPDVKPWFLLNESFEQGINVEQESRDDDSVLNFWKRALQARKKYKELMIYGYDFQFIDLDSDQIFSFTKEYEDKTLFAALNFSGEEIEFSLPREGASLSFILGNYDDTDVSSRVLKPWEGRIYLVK
Method: (§1) The inhibitory activities against α-glucosidase (yeast, type I, produced by Sigman Chemical Co.) and glucoamylase (Rhizopus mold, produced by Sigma Chemical Co.) when p-nitrophenyl α-D-glucopyranoside is used as a substrate, are determined by adding to 0.25 ml of 0.02 M phosphate buffer (pH 6.8) containing 0.005 mg/ml of α-glucosidase 0.5 ml of a solution of valiolamine in the same buffer and 0.25 ml of a solution of 0.01 M p-nitrophenyl α-D-glucopyranoside in the same buffer, allowing the reaction to proceed at 37° C. for 15 minutes, then adding 3 ml of 0.1 M aqueous sodium carbonate solution to terminate the reaction, and measuring the absorbance of the reaction solution at 400 nm. The 50% inhibition concentration is calculated from the inhibition rates (%) which are determined with inhibitory substance samples of three to five different concentrations.

[2] = target: T1, α-glucosidase (yeast, type I); experiment: glucosidase inhibitory activity, maltose as substrate; type: biochemical; details: substrate 0.05 M maltose, pH 6.8, 37° C., read-out: IC50 (concentration of 50% inhibition)
Method: (§2) The inhibitory activities of valiolamine against α-glucosidase (yeast, type I, produced by Sigma Chemical Co., U.S.A.) as well as maltase and saccharase prepared from porcine intestinal mucosa (prepared in accordance with the procedure as described by B. Borgstrom and A. Dahlqvist in Acta Chem. Scand.; 12, 1997-2006, (1958)), when maltose and sucrose are used as a substrate, are determined by adding to 0.25 ml of a solution of an enzyme prepared by diluting suitably with 0.02 M phosphate buffer (pH 6.8) 0.5 ml of a solution of valiolamine to be tested in the same buffer and 0.25 ml of 0.05 M maltose or 0.05 M sucrose as the substrate in the same buffer allowing the mixture to react at 37° C. for 10 minutes, then adding 3 ml of Glucose B-Test Reagent (a glucose oxidase reagent for measurement of glucose, produced by Wako Pure Chemical Co., Japan), further warming the mixture at 37° C. for 20 minutes and measuring the absorbance of the reaction solution at 505 nm. […]

toxicity (LD50) in rats = details: rat, in vivo
[3] = target: maltase (porcine, intestinal mucosa); experiment: maltase inhibitory activity, maltose as substrate; type: biochemical; details: substrate 0.05 M maltose, pH 6.8, 37° C., read-out: IC50 (concentration of 50% inhibition)
Method: as §2

[4] = target: T2, glucoamylase (Rhizopus mold) (Rhizopus oryzae, UniProt P07683); experiment: glucoamylase inhibitory activity, p-nitrophenyl α-D-glucopyranoside as substrate; type: biochemical; details: substrate 0.01 M p-nitrophenyl α-D-glucopyranoside, pH 6.8, 37° C., read-out: IC50 (concentration of 50% inhibition)
T2 construct: purchased Sigma Chemical Co; host or cells: Rhizopus mold
T2 sequence (P07683 26-604): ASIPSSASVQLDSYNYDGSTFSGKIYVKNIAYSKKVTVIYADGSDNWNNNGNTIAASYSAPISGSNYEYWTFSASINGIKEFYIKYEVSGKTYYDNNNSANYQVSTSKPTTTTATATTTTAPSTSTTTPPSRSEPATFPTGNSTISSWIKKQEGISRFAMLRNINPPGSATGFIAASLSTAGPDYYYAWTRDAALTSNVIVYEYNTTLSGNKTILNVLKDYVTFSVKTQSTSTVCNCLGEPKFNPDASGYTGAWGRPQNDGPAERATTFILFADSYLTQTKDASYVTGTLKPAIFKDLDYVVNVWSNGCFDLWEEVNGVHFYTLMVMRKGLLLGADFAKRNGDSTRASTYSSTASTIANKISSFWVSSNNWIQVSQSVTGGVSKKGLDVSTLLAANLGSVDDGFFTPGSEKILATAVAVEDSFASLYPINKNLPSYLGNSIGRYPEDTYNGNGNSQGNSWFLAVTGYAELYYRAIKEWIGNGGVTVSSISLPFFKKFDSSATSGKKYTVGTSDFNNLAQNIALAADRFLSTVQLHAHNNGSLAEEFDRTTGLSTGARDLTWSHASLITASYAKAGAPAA
Method: as §1

α-glucoside hydrolase = details: reported in Journal of Antibiotics 33, 1575 to 1576 (1980); cited from earlier work

SMILES | IC50 [1] | IC50 [2] | LD50 (toxicity (LD50) in rats) | IC50 [3] | IC50 [4] | action on α-glucoside hydrolase (α-glucoside hydrolase)
N[C@H]1C[C@](O)(CO)[C@@H](O)[C@H](O)[C@H]1O [valiolamine, 1L(1S)-(1(OH),2,4,5/1,3)-5-amino-1-hydroxymethyl-1,2,3,4-cyclohexanetetrol] | 1100 µM | 190 µM | ≥ 500 mg/kg | 2.2 µM | 600 µM | 
N[C@H]1C=C(CO)[C@@H](O)[C@H](O)[C@H]1O [valienamine] |  |  |  |  |  | possesses an action of suppressing the function of α-glucoside hydrolase
